pKd: −log10 of the molar value.
These compounds were tested against WDR5 (Homo sapiens (Human), UniProt P61964) (assay: Surface Plasmon Resonance (SPR) assay, KD and residence time). Details: SPR, Table 2; read-out: WDR5 binding affinity (KD).
Type: binding

`CC(=O)Nc1cc(C(F)(F)F)c(C(=O)Nc2cc(-c3cnc(N4CCOCC4)nc3)c(F)cc2N2C[C@@H](C)N(C)[C@@H](C)C2)cn1` [Example 27, 6-acetamido-N-[4-fluoro-5-(2-morpholin-4-ylpyrimidin-5-yl)-2-[(3R,5S)-3,4,5-trimethylpiperazin-1-yl]phenyl]-4-(trifluoromethyl)pyridine-3-carboxamide] showed a pKd of 6.53.

Same assay, conditions: surface plasmon resonance (SPR) assay; read-out: WDR5 binding affinity (KD)

`CC(=O)Nc1cc(C(F)(F)F)c(C(=O)Nc2cc(-c3cnc(N4CCOCC4)nc3)c(F)cc2N2C[C@@H](C)N(C)[C@@H](C)C2)cn1` [Example 27, 6-acetamido-N-[4-fluoro-5-(2-morpholin-4-ylpyrimidin-5-yl)-2-[(3R,5S)-3,4,5-trimethylpiperazin-1-yl]phenyl]-4-(trifluoromethyl)pyridine-3-carboxamide] and `C[C@@H]1CN(c2cc(C(F)(F)F)c(-c3cnc(N4CCOCC4)nc3)cc2NC(=O)c2c[nH]c(=O)cc2C(F)(F)F)C[C@H](C)N1C` [Example 59, N-[5-(2-morpholin-4-ylpyrimidin-5-yl)-2-[rac-(3R,5S)-3,4,5-trimethylpiperazin-1-yl]-4-(trifluoromethyl)phenyl]-6-oxo-4-(trifluoromethyl)-1H-pyridine-3-carboxamide] cannot be ordered by pKd: 6.53 for the first, < 6.70 for the second.

Same assay, conditions: surface plasmon resonance (SPR); read-out: WDR5 binding affinity (KD)

Going from `CC1CN(c2cc(F)c(-c3cccc(N4CCOCC4)n3)cc2NC(=O)c2ccc(F)cc2C(F)(F)F)CCN1C` (stereo in doubt) [Example 673, 4-fluoro-N-[4-fluoro-5-(6-morpholin-4-ylpyridin-2-yl)-2-[(3R)-3,4-dimethylpiperazin-1-yl]phenyl]-2-(trifluoromethyl)benzamide] to `CC1CN(c2cc(F)c(-c3cccc(N4CCOCC4)n3)cc2NC(=O)c2c[nH]c(=O)cc2C(F)(F)F)CCN1C` (stereo in doubt) [Example 719, N-[4-fluoro-5-(6-morpholin-4-ylpyridin-2-yl)-2-[(3R)-3,4-dimethylpiperazin-1-yl]phenyl]-6-oxo-4-(trifluoromethyl)-1H-pyridine-3-carboxamide], the pKd rises from 8.50 to 8.93 (0.43 log units). The second binds more tightly here.

`CC1CN(c2cc(F)c(C3=CCN(c4ncc(C#N)s4)CC3)cc2NC(=O)c2c[nH]c(=O)cc2C(F)F)CCN1C` (stereo in doubt) [Example 686, N-[5-[1-(5-cyano-1,3-thiazol-2-yl)-3,6-dihydro-2H-pyridin-4-yl]-4-fluoro-2-[(3R)-3,4-dimethylpiperazin-1-yl]phenyl]-4-(difluoromethyl)-6-oxo-1H-pyridine-3-carboxamide] and `CC1CN(c2cc(F)c(C3=CCCN(c4ncc(C#N)s4)C3)cc2NC(=O)c2c[nH]c(=O)cc2C(F)F)CCN1C` (stereo in doubt) [Example 688, N-[5-[1-(5-cyano-1,3-thiazol-2-yl)-3,6-dihydro-2H-pyridin-5-yl]-4-fluoro-2-[(3R)-3,4-dimethylpiperazin-1-yl]phenyl]-4-(difluoromethyl)-6-oxo-1H-pyridine-3-carboxamide] are within 0.2 log units of each other in pKd: 8.70 for the first, 8.60 for the second.

Going from `CC1CN(c2cc(F)c(C3=CCCN(c4ncc(C#N)s4)C3)cc2NC(=O)c2ccc(F)cc2C(F)(F)F)CCN1C` (stereo in doubt) [Example 689, N-[5-[1-(5-cyano-1,3-thiazol-2-yl)-3,6-dihydro-2H-pyridin-5-yl]-4-fluoro-2-[(3R)-3,4-dimethylpiperazin-1-yl]phenyl]-4-fluoro-2-(trifluoromethyl)benzamide] to `CC(C)OC(=O)N1CCC=C(c2cc(NC(=O)c3ccc(F)cc3C(F)(F)F)c(N3CCN(C)C(C)C3)cc2F)C1` (stereo in doubt) [Example 728, propan-2-yl 5-[2-fluoro-5-[[4-fluoro-2-(trifluoromethyl)benzoyl]amino]-4-[(3R)-3,4-dimethylpiperazin-1-yl]phenyl]-3,6-dihydro-2H-pyridine-1-carboxylate], the pKd rises from 8.20 to 8.45 (0.25 log units). The second binds more tightly here.

Compared with `CC1CN(c2cc(F)c(C3=CCN(C(=O)OC4CC(F)(F)C4)CC3)cc2NC(=O)c2c[nH]c(=O)cc2C(F)F)CCN1C` (stereo in doubt) [Example 703, (3,3-difluorocyclobutyl) 4-[5-[[4-(difluoromethyl)-6-oxo-1H-pyridine-3-carbonyl]amino]-2-fluoro-4-[(3R)-3,4-dimethylpiperazin-1-yl]phenyl]-3,6-dihydro-2H-pyridine-1-carboxylate], `CC1CN(c2cc(F)c(C3=CCCN(C(=O)OC4CC(F)(F)C4)C3)cc2NC(=O)c2c[nH]c(=O)cc2C(F)F)CCN1C` (stereo in doubt) [Example 705, (3,3-difluorocyclobutyl) 5-[5-[[4-(difluoromethyl)-6-oxo-1H-pyridine-3-carbonyl]amino]-2-fluoro-4-[(3R)-3,4-dimethylpiperazin-1-yl]phenyl]-3,6-dihydro-2H-pyridine-1-carboxylate] is 0.30 log units lower in pKd: 8.99 for the first, 8.69 for the second. The first binds more tightly here.

Compared with `CC1CN(c2cc(F)c(C3=CCCN(C(=O)OC4CC(F)(F)C4)C3)cc2NC(=O)c2ccc(F)cc2C(F)(F)F)CCN1C` (stereo in doubt) [Example 706, (3,3-difluorocyclobutyl) 5-[2-fluoro-5-[[4-fluoro-2-(trifluoromethyl)benzoyl]amino]-4-[(3R)-3,4-dimethylpiperazin-1-yl]phenyl]-3,6-dihydro-2H-pyridine-1-carboxylate], `CC1CN(c2cc(F)c(C3=CCN(C(=O)OC4CC(F)(F)C4)CC3)cc2NC(=O)c2ccc(F)cc2C(F)(F)F)CCN1C` (stereo in doubt) [Example 707, (3,3-difluorocyclobutyl) 4-[2-fluoro-5-[[4-fluoro-2-(trifluoromethyl)benzoyl]amino]-4-[(3R)-3,4-dimethylpiperazin-1-yl]phenyl]-3,6-dihydro-2H-pyridine-1-carboxylate] is 0.25 log units higher in pKd: 8.42 for the first, 8.67 for the second.

First: CC1CN(c2cc(F)c(C3=CCN(c4ccnc(C#N)n4)CC3)cc2NC(=O)c2c[nH]c(=O)cc2C(F)F)CCN1C (stereo in doubt) [Example 708, N-[5-[1-(2-cyanopyrimidin-4-yl)-3,6-dihydro-2H-pyridin-4-yl]-4-fluoro-2-[(3R)-3,4-dimethylpiperazin-1-yl]phenyl]-4-(difluoromethyl)-6-oxo-1H-pyridine-3-carboxamide]
Second: CC1CN(c2cc(F)c(-c3ccnc(N4CCOCC4)n3)cc2NC(=O)c2c[nH]c(=O)cc2C(F)F)CCN1C (stereo in doubt) [Example 720, 4-(difluoromethyl)-N-[4-fluoro-5-(2-morpholin-4-ylpyrimidin-4-yl)-2-[(3R)-3,4-dimethylpiperazin-1-yl]phenyl]-6-oxo-1H-pyridine-3-carboxamide]
The pKd of the first is 0.36 log units higher: 9.24 for the first, 8.88 for the second. The first binds more tightly here.

First: CC1CN(c2cc(F)c(-c3cnn(CCN4CCOCC4)c3)cc2NC(=O)c2c[nH]c(=O)cc2C(F)(F)F)CCN1C (stereo in doubt) [Example 714, N-[4-fluoro-5-[1-(2-morpholin-4-ylethyl)pyrazol-4-yl]-2-[(3R)-3,4-dimethylpiperazin-1-yl]phenyl]-6-oxo-4-(trifluoromethyl)-1H-pyridine-3-carboxamide]
Second: CC1CN(c2cc(F)c(-c3cnn(CCN4CCOCC4)c3)cc2NC(=O)c2cn(C)c(=O)cc2C(F)F)CCN1C (stereo in doubt) [Example 715, 4-(difluoromethyl)-N-[4-fluoro-5-[1-(2-morpholin-4-ylethyl)pyrazol-4-yl]-2-[(3R)-3,4-dimethylpiperazin-1-yl]phenyl]-1-methyl-6-oxopyridine-3-carboxamide]
The pKd of the first is 0.60 log units higher: 8.56 for the first, 7.96 for the second. The first binds more tightly here.

Going from `CC1CN(c2cc(F)c(-c3ccnc(N4CCOCC4)n3)cc2NC(=O)c2c[nH]c(=O)cc2C(F)(F)F)CCN1C` (stereo in doubt) [Example 718, N-[4-fluoro-5-(2-morpholin-4-ylpyrimidin-4-yl)-2-[(3R)-3,4-dimethylpiperazin-1-yl]phenyl]-6-oxo-4-(trifluoromethyl)-1H-pyridine-3-carboxamide] to `CC1CN(c2cc(F)c(-c3cccc(N4CCNCC4)n3)cc2NC(=O)c2c[nH]c(=O)cc2C(F)(F)F)CCN1C` (stereo in doubt) [Example 742, N-[4-fluoro-5-(6-piperazin-1-ylpyridin-2-yl)-2-[(3R)-3,4-dimethylpiperazin-1-yl]phenyl]-6-oxo-4-(trifluoromethyl)-1H-pyridine-3-carboxamide], the pKd falls from 8.96 to 8.54 (0.42 log units). The first binds more tightly here.

`CC1CN(c2cc(F)c(-c3cccc(N4CCOCC4)n3)cc2NC(=O)c2c[nH]c(=O)cc2C(F)F)CCN1C` (stereo in doubt) [Example 721, 4-(difluoromethyl)-N-[4-fluoro-5-(6-morpholin-4-ylpyridin-2-yl)-2-[(3R)-3,4-dimethylpiperazin-1-yl]phenyl]-6-oxo-1H-pyridine-3-carboxamide] and `CC(C)OC(=O)N1CCC=C(c2cc(NC(=O)c3c[nH]c(=O)cc3C(F)F)c(N3CCN(C)C(C)C3)cc2F)C1` (stereo in doubt) [Example 726, propan-2-yl 5-[5-[[4-(difluoromethyl)-6-oxo-1H-pyridine-3-carbonyl]amino]-2-fluoro-4-[(3R)-3,4-dimethylpiperazin-1-yl]phenyl]-3,6-dihydro-2H-pyridine-1-carboxylate] are within 0.2 log units of each other in pKd: 8.79 for the first, 8.68 for the second.

`CC(C)OC(=O)N1CC=C(c2cc(NC(=O)c3c[nH]c(=O)cc3C(F)F)c(N3CCN(C)C(C)C3)cc2F)CC1` (stereo in doubt) [Example 724, propan-2-yl 4-[5-[[4-(difluoromethyl)-6-oxo-1H-pyridine-3-carbonyl]amino]-2-fluoro-4-[(3R)-3,4-dimethylpiperazin-1-yl]phenyl]-3,6-dihydro-2H-pyridine-1-carboxylate] and `CC(C)OC(=O)N1CC=C(c2cc(NC(=O)c3ccc(F)cc3C(F)(F)F)c(N3CCN(C)C(C)C3)cc2F)CC1` (stereo in doubt) [Example 727, propan-2-yl 4-[2-fluoro-5-[[4-fluoro-2-(trifluoromethyl)benzoyl]amino]-4-[(3R)-3,4-dimethylpiperazin-1-yl]phenyl]-3,6-dihydro-2H-pyridine-1-carboxylate] are within 0.2 log units of each other in pKd: 8.55 for the first, 8.61 for the second.

Going from `C[C@@H]1CN(c2cc(F)c(-c3cnc(N4CCOC[C@H]4C)nc3)cc2NC(=O)c2ccc(F)cc2C(F)(F)F)CCN1C` (stereo in doubt) [Example 736, 4-fluoro-N-[4-fluoro-2-[(3R)-3,4-dimethylpiperazin-1-yl]-5-[2-[(3R)-3-methylmorpholin-4-yl]pyrimidin-5-yl]phenyl]-2-(trifluoromethyl)benzamide] to `CC1CN(c2cc(F)c(-c3ccnc(N4C[C@@H](C)O[C@@H](C)C4)n3)cc2NC(=O)c2ccc(F)cc2C(F)(F)F)CCN1C` (stereo in doubt) [Example 739, 4-fluoro-N-[4-fluoro-5-[2-[(2R,6S)-2,6-dimethylmorpholin-4-yl]pyrimidin-4-yl]-2-[(3R)-3,4-dimethylpiperazin-1-yl]phenyl]-2-(trifluoromethyl)benzamide], the pKd falls from 9.54 to 8.52 (1.02 log units). The first binds more tightly here.

Source: patent US11319299B2, “Substituted carboxamides as inhibitors of WDR5 protein-protein binding” (PROPELLON THERAPEUTICS INC., priority 2016, dated 2022)
